Test results published in patent publication US20060009487A1, “Heterocyclic derivatives for treatment of hyperlipidemia and related diseases” (priority 2004, published 2006).

Q: For `O=C(O)c1cnc2ccccc2c1NCCCNc1ncccn1` [E6, n=2, R=H, 4-[3-(Pyrimidin-2-yl-amino)-propylamino]-quinoline-3-carboxylic acid], which melting point is on record?
A: 269 °C

Q: Which melting point does the source give for `Cc1nc2ccccc2c(-c2ccccc2)c1CC(NC(=O)CCCC(=O)O)C(=O)NCCCCN` (centres unmarked) [D9, 4-[1-(4-Amino-butylcarbamoyl)-2-(2-methyl-4-phenyl-quinolin-3-yl)-ethylcarbamoyl]-butyric acid] here?
A: 129 °C

Q: Which melting point does the source give for `N=C(N)NCCNc1c(C(=O)O)cnc2ccccc12` [E5, n=1, 4-(2-Guanidino-ethylamino)-quinoline-3-carboxylic acid] here?
A: 267 °C

Q: With `Nc1c(C(=O)O)cnc2ccccc12` [F3, 4-Amino-quinoline-3-carboxylic acid] as the molecule, how does the melting point read?
A: 305 °C

Q: Which melting point does the source give for `CCOC(=O)c1cnc2ccccc2c1NCCCCCNc1ncccn1` [E6, n=4, R═CH2CH3, 4-[5-(Pyrimidin-2-ylamino)-pentylamino]-quinoline-3-carboxylic acid ethyl ester] here?
A: 108 °C
